Results taken from patent US20190185518A9, “WARHEAD-CONTAINING PEPTIDOMIMETIC MACROCYCLES AS MODULATORS OF BFL-1” (AILERON Therapeutics, Inc., priority 2017, published 2019).
Like-named read-outs stand apart in the source and are kept apart here. Positions of bridges follow the written chain, without caps; N, C: chain ends. Non-standard residues stand in square brackets, D forms with d. Residues, ends and D or L forms follow the SMILES beside them. R8 = C=CCCCCCC[C@@](C)(N)C(=O)O; Cit = NC(=O)NCCC[C@H](N)C(=O)O; S5 = C=CCCC[C@](C)(N)C(=O)O

Assays:
[1] = tested on: Mcl-1, Bcl-xL, Bcl-2; assay: BCL-2 family selectivity profile; type: binding
Excerpt: The binding spectrum of stapled BIM BH3 peptides were tuned for BCL-2 family selectivity. […] ABT-199 is venetoclax, and † represents values reported in the literature.

[2] = target: Mcl-1 (Homo sapiens, UniProt Q07820); assay: Ki determination for Mcl-1 (BCL-2 family binding spectrum)
Sequence of Mcl-1 (Q07820 whole entry, species assumed): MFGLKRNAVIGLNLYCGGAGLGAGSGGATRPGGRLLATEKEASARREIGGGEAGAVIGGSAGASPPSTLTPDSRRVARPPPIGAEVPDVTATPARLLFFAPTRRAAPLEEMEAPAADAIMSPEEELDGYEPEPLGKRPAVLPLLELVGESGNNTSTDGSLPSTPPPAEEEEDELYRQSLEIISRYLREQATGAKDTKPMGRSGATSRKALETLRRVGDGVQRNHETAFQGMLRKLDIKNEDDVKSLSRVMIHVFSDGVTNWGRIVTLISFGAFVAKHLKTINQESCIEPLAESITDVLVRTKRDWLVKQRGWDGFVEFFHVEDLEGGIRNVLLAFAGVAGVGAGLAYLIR
Outline: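 Competitive fluorescence polarization assay in which compounds displace a fluoresceinated peptidomimetic macrocycle tracer from Mcl-1. Affinity constants were obtained by nonlinear regression.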

[3] = target: Bcl-xL (Homo sapiens, UniProt Q07817); assay: Ki determination for Bcl-xL (BCL-2 family binding spectrum)
Sequence of Bcl-xL (Q07817 whole entry, species assumed): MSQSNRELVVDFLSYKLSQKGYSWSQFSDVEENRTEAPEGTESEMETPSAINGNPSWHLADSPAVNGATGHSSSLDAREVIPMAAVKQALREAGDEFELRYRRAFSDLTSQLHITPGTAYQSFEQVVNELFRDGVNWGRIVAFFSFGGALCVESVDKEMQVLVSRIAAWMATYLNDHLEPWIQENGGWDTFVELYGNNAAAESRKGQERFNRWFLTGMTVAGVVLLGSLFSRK
Outline: (§1)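 Competitive fluorescence polarization: compounds (1 nM–1 mM) with 25 nM fluoresceinated peptidomimetic macrocycle and 50 nM protein in 140 mM NaCl, 50 mM Tris-HCl pH 7.4, 30 min at room temperature. Constants from nonlinear regression.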

[4] = target: Bcl-2 (Homo sapiens, UniProt P10415); assay: Ki determination for Bcl-2 (BCL-2 family binding spectrum)
Sequence of Bcl-2 (P10415 whole entry, species assumed): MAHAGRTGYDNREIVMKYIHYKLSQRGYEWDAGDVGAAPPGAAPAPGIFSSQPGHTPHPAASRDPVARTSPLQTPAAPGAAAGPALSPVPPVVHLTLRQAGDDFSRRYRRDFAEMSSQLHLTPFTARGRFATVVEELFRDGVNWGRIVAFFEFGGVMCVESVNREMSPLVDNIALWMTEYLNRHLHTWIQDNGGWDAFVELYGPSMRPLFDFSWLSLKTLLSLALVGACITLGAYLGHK
Outline: as §1

Row | Structure (SMILES) | Profile ([1]; TABLE 6) | Ki ([2]; TABLE 6, read-out: Mcl-1 Ki) | Ki ([3]; TABLE 6, read-out: Bcl-xL Ki) | Ki ([4]; TABLE 6, read-out: Bcl-2 Ki) | other results
1 | CC[C@H](C)[C@H](NC(C)=O)C(=O)N[C@@H](Cc1c[nH]c2ccccc12)C(=O)N[C@H](C(=O)N[C@@H](C)C(=O)N[C@@H](CCC(N)=O)C(=O)N[C@@H](C)C(=O)N[C@@H](CC(C)C)C(=O)N[C@@H](CCCNC(=N)N)C(=O)N[C@]1(C)CCCCCCC=CCCC[C@@](C)(C(=O)N[C@@H](Cc2ccc(O)cc2)C(=O)N[C@@H](Cc2ccc(O)cc2)C(=O)N[C@@H](C)C(N)=O)NC(=O)[C@H](CC(N)=O)NC(=O)[C@H](Cc2ccccc2)NC(=O)[C@H](C)NC(=O)[C@H](CC(N)=O)NC(=O)CNC(=O)[C@H]([C@@H](C)CC)NC1=O)[C@@H](C)CC [compound 12] (Ac-IWIAQALR[R8]IGNAFN[S5]YYA-NH2; staple 9-16) | negative control |  |  |  | 
2 | CC[C@H](C)[C@H](NC(C)=O)C(=O)N[C@@H](Cc1c[nH]c2ccccc12)C(=O)N[C@H](C(=O)N[C@@H](C)C(=O)N[C@@H](CCC(N)=O)C(=O)N[C@@H](C)C(=O)N[C@@H](CC(C)C)C(=O)N[C@@H](C)C(=O)N[C@]1(C)CCCCCCC=CCCC[C@@](C)(C(=O)N[C@@H](Cc2ccc(O)cc2)C(=O)N[C@@H](Cc2ccc(O)cc2)C(=O)N[C@@H](C)C(N)=O)NC(=O)[C@H](CC(N)=O)NC(=O)[C@H](Cc2ccccc2)NC(=O)[C@H](C)NC(=O)[C@H](CC(=O)O)NC(=O)CNC(=O)[C@H]([C@@H](C)CC)NC1=O)[C@@H](C)CC [compound 11] (Ac-IWIAQALA[R8]IGDAFN[S5]YYA-NH2; staple 9-16) | negative control | 73.8 nM | 386 nM |  | 
3 | CC[C@H](C)[C@H](NC(C)=O)C(=O)N[C@@H](Cc1c[nH]c2ccccc12)C(=O)N[C@H](C(=O)N[C@@H](C)C(=O)N[C@@H](CCC(N)=O)C(=O)N[C@@H](C)C(=O)N[C@@H](CC(C)C)C(=O)N[C@@H](CCCNC(=N)N)C(=O)N[C@]1(C)CCCCCCC=CCCC[C@@](C)(C(=O)N[C@@H](Cc2ccc(O)cc2)C(=O)N[C@@H](Cc2ccc(O)cc2)C(=O)N[C@@H](C)C(N)=O)NC(=O)[C@H](CC(N)=O)NC(=O)[C@H](C)NC(=O)[C@H](CCC(N)=O)NC(=O)[C@H](CC(=O)O)NC(=O)CNC(=O)[C@H]([C@@H](C)CC)NC1=O)[C@@H](C)CC [compound 8] (Ac-IWIAQALR[R8]IGDQAN[S5]YYA-NH2; staple 9-16) | Mcl-1 selective | 1.4 nM |  |  | 
4 | CC[C@H](C)[C@H](NC(C)=O)C(=O)N[C@@H](Cc1c[nH]c2ccccc12)C(=O)N[C@H](C(=O)N[C@@H](C)C(=O)N[C@@H](C)C(=O)N[C@@H](C)C(=O)N[C@@H](CC(C)C)C(=O)N[C@@H](CCCNC(=N)N)C(=O)N[C@]1(C)CCCCCCC=CCCC[C@@](C)(C(=O)N[C@@H](Cc2ccc(O)cc2)C(=O)N[C@@H](Cc2ccc(O)cc2)C(=O)N[C@@H](C)C(N)=O)NC(=O)[C@H](CC(N)=O)NC(=O)[C@H](Cc2ccccc2)NC(=O)[C@H](CCC(=O)O)NC(=O)[C@H](CC(=O)O)NC(=O)CNC(=O)[C@H]([C@@H](C)CC)NC1=O)[C@@H](C)CC [compound 3] (Ac-IWIAAALR[R8]IGDEFN[S5]YYA-NH2; staple 9-16) | Pan-selective | 1 nM | 1 nM | 6 nM | 
5 | CC[C@H](C)[C@H](NC(C)=O)C(=O)N[C@@H](Cc1c[nH]c2ccccc12)C(=O)N[C@H](C(=O)N[C@@H](C)C(=O)N[C@@H](CCC(N)=O)C(=O)N[C@@H](C)C(=O)N[C@@H](CC(C)C)C(=O)N[C@@H](CCCNC(=N)N)C(=O)N[C@]1(C)CCCCCCC=CCCC[C@@](C)(C(=O)N[C@@H](Cc2ccc(O)cc2)C(=O)N[C@@H](Cc2ccc(O)cc2)C(=O)N[C@@H](C)C(N)=O)NC(=O)[C@H](CC(N)=O)NC(=O)[C@H](Cc2ccccc2)NC(=O)[C@H](CCC(N)=O)NC(=O)[C@H](CC(=O)O)NC(=O)[C@H](C)NC(=O)[C@H]([C@@H](C)CC)NC1=O)[C@@H](C)CC [compound 9] (Ac-IWIAQALR[R8]IADQFN[S5]YYA-NH2; staple 9-16) | Bcl-xL/Bcl-2 selective |  | 7.7 nM | 25.6 nM | 
6 | CC[C@H](C)[C@H](NC(C)=O)C(=O)N[C@@H](Cc1c[nH]c2ccccc12)C(=O)N[C@H](C(=O)N[C@@H](C)C(=O)N[C@@H](CCC(N)=O)C(=O)N[C@@H](C)C(=O)N[C@@H](CC(C)C)C(=O)N[C@@H](CCCNC(N)=O)C(=O)N[C@]1(C)CCCCCCC=CCCC[C@@](C)(C(=O)N[C@@H](Cc2ccc(O)cc2)C(=O)N[C@@H](Cc2ccc(O)cc2)C(=O)N[C@@H](C)C(N)=O)NC(=O)[C@H](CC(N)=O)NC(=O)[C@H](Cc2ccccc2)NC(=O)[C@H](C)NC(=O)[C@H](CC(=O)O)NC(=O)CNC(=O)[C@H]([C@@H](C)CC)NC1=O)[C@@H](C)CC [compound 5] (Ac-IWIAQAL[Cit][R8]IGDAFN[S5]YYA-NH2; staple 9-16) | Mcl-1 selective | 7.5 nM | 110 nM | 212 nM | 
7 | CC[C@H](C)[C@H](NC(C)=O)C(=O)N[C@@H](Cc1c[nH]c2ccccc12)C(=O)N[C@H](C(=O)N[C@@H](C)C(=O)N[C@@H](CCC(N)=O)C(=O)N[C@@H](C)C(=O)N[C@@H](CC(C)C)C(=O)N[C@@H](CCCNC(=N)N)C(=O)N[C@]1(C)CCCCCCC=CCCC[C@@](C)(C(=O)N[C@@H](Cc2ccc(O)cc2)C(=O)N[C@@H](Cc2ccc(O)cc2)C(=O)N[C@@H](C)C(N)=O)NC(=O)[C@H](CC(N)=O)NC(=O)[C@H](Cc2ccccc2)NC(=O)[C@H](CCC(N)=O)NC(=O)[C@H](CC(=O)O)NC(=O)CNC(=O)[C@H]([C@@H](C)CC)NC1=O)[C@@H](C)CC [compound 2] (Ac-IWIAQALR[R8]IGDQFN[S5]YYA-NH2; staple 9-16) | Pan-selective | 5.2 nM | 12 nM | 67 nM | 
8 | CC[C@H](C)[C@H](NC(C)=O)C(=O)N[C@@H](Cc1c[nH]c2ccccc12)C(=O)N[C@H](C(=O)N[C@@H](C)C(=O)N[C@@H](CCC(N)=O)C(=O)N[C@@H](C)C(=O)N[C@@H](C)C(=O)N[C@@H](CCCNC(=N)N)C(=O)N[C@]1(C)CCCCCCC=CCCC[C@@](C)(C(=O)N[C@@H](Cc2ccc(O)cc2)C(=O)N[C@@H](Cc2ccc(O)cc2)C(=O)N[C@@H](C)C(N)=O)NC(=O)[C@H](CC(N)=O)NC(=O)[C@H](Cc2ccccc2)NC(=O)[C@H](C)NC(=O)[C@H](CC(=O)O)NC(=O)CNC(=O)[C@H]([C@@H](C)CC)NC1=O)[C@@H](C)CC [compound 13] (Ac-IWIAQAAR[R8]IGDAFN[S5]YYA-NH2; staple 9-16) | negative control |  |  |  | 
9 | CN(C)CC[C@H](CSc1ccccc1)Nc1ccc(S(=O)(=O)NC(=O)c2ccc(N3CCN(Cc4ccccc4-c4ccc(Cl)cc4)CC3)cc2)cc1[N+](=O)[O-] [ABT-737, reference compound] |  |  |  |  | Profile ([1]; TABLE 8): Bcl-xL/Bcl-2 selective
10 | CC[C@H](C)[C@H](NC(C)=O)C(=O)N[C@@H](Cc1c[nH]c2ccccc12)C(=O)N[C@H](C(=O)N[C@@H](C)C(=O)N[C@@H](C)C(=O)N[C@@H](C)C(=O)N[C@@H](CC(C)C)C(=O)N[C@@H](CCCNC(=N)N)C(=O)N[C@]1(C)CCCCCCC=CCCC[C@@](C)(C(=O)N[C@@H](Cc2ccc(O)cc2)C(=O)N[C@@H](Cc2ccc(O)cc2)C(=O)N[C@@H](C)C(N)=O)NC(=O)[C@H](CC(N)=O)NC(=O)[C@H](Cc2ccccc2)NC(=O)[C@H](CCC(=O)O)NC(=O)[C@H](CC(=O)O)NC(=O)CNC(=O)[C@H]([C@@H](C)CC)NC1=O)[C@@H](C)CC [compound 1651] (Ac-IWIAAALR[R8]IGDEFN[S5]YYA-NH2; staple 9-16) |  |  |  |  | Ki ([2]; read-out: Ki MCL-1): 1 nM; Ki ([4]; read-out: Ki BCL-2): 6 nM; Ki ([3]; read-out: Ki BCL-XL): 1 nM
11 | CC[C@H](C)[C@H](NC(C)=O)C(=O)N[C@@H](Cc1c[nH]c2ccccc12)C(=O)N[C@H](C(=O)N[C@@H](C)C(=O)N[C@@H](CCC(N)=O)C(=O)N[C@@H](C)C(=O)N[C@@H](CC(C)C)C(=O)N[C@@H](C)C(=O)N[C@]1(C)CCCCCCC=CCCC[C@@](C)(C(=O)N[C@@H](Cc2ccc(O)cc2)C(=O)N[C@@H](Cc2ccc(O)cc2)C(=O)N[C@@H](C)C(N)=O)NC(=O)[C@H](CC(N)=O)NC(=O)[C@H](Cc2ccccc2)NC(=O)[C@H](C)NC(=O)[C@H](CC(=O)O)NC(=O)CNC(=O)[C@H]([C@@H](C)CC)NC1=O)[C@@H](C)CC [compound 1673] (Ac-IWIAQALA[R8]IGDAFN[S5]YYA-NH2; staple 9-16) |  |  |  |  | Ki ([2]; read-out: Ki MCL-1): 73.8 nM; Ki ([4]; read-out: Ki BCL-2): > 1000 nM; Ki ([3]; read-out: Ki BCL-XL): 386 nM
12 | CC[C@H](C)[C@H](NC(C)=O)C(=O)N[C@@H](Cc1c[nH]c2ccccc12)C(=O)N[C@H](C(=O)N[C@@H](C)C(=O)N[C@@H](CCC(N)=O)C(=O)N[C@@H](C)C(=O)N[C@@H](CC(C)C)C(=O)N[C@@H](CCCNC(=N)N)C(=O)N[C@]1(C)CCCCCCC=CCCC[C@@](C)(C(=O)N[C@@H](Cc2ccc(O)cc2)C(=O)N[C@@H](Cc2ccc(O)cc2)C(=O)N[C@@H](C)C(=O)N[C@@H](CCCNC(=N)N)C(=O)N[C@@H](CCCNC(=N)N)C(N)=O)NC(=O)[C@H](CC(N)=O)NC(=O)[C@H](Cc2ccccc2)NC(=O)[C@H](CCC(=O)O)NC(=O)[C@H](CC(=O)O)NC(=O)CNC(=O)[C@H]([C@@H](C)CC)NC1=O)[C@@H](C)CC [Peptide #15] (Ac-IWIAQALR[R8]IGDEFN[S5]YYARR-NH2; staple 9-16) |  |  |  |  | Ki ([2]; TABLE 8, read-out: Mcl-1 Ki): 10.6 nM; Profile ([1]; TABLE 8): Pan-selective
